Measured values published in PubChem BioAssay AID1918937 (Molecular Pharmacology Branch, DTP, NCI, 2023).

Test system: 521955-158-R2-J5-PDC complex spheroid viability
Experiment: Anticancer human tumor 521955-158-R2-J5-PDC patient-derived pancreatic carcinoma cell line growth inhibition
Conditions: for IC50: curve of first compound; for viability, T/C: stronger effect = lower value
Summary of the method: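 Multicellular complex spheroids of tumor cells with human endothelial cells (HUVEC) and mesenchymal stem cells; the LSD1 inhibitor iadademstat was combined with standard-of-care or investigational agents. Top concentration at or near clinical Cmax, half-log dilutions; final DMSO ≤0.25%.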

[1] = second compound 0.1 µM, first compound 0.000316 µM
[2] = second compound 0.1 µM, first compound 0.001 µM
[3] = second compound 0.1 µM, first compound 0.00316 µM
[4] = second compound 0.1 µM, first compound 0.01 µM
[5] = second compound 0.1 µM, first compound 0.0316 µM
[6] = second compound 0.1 µM, first compound 0.1 µM
[7] = second compound 0.316 µM, first compound 0.000316 µM
[8] = second compound 0.316 µM, first compound 0.001 µM
[9] = second compound 0.316 µM, first compound 0.00316 µM
[10] = second compound 0.316 µM, first compound 0.01 µM
[11] = second compound 0.316 µM, first compound 0.0316 µM
[12] = second compound 0.316 µM, first compound 0.1 µM
[13] = second compound 1 µM, first compound 0.000316 µM
[14] = second compound 1 µM, first compound 0.001 µM
[15] = second compound 1 µM, first compound 0.00316 µM
[16] = second compound 1 µM, first compound 0.01 µM
[17] = second compound 1 µM, first compound 0.0316 µM
[18] = second compound 1 µM, first compound 0.1 µM
[19] = second compound 3.16 µM, first compound 0.000316 µM
[20] = second compound 3.16 µM, first compound 0.001 µM
[21] = second compound 3.16 µM, first compound 0.00316 µM
[22] = second compound 3.16 µM, first compound 0.01 µM
[23] = second compound 3.16 µM, first compound 0.0316 µM
[24] = second compound 3.16 µM, first compound 0.1 µM
[25] = second compound 10 µM, first compound 0.000316 µM
[26] = second compound 10 µM, first compound 0.001 µM
[27] = second compound 10 µM, first compound 0.00316 µM
[28] = second compound 10 µM, first compound 0.01 µM
[29] = second compound 10 µM, first compound 0.0316 µM
[30] = second compound 10 µM, first compound 0.1 µM
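Also: spheroids exposed to agents for seven days.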
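For viability, T/C in this document: percent of DMSO vehicle control luminescence viability.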

Work on `CC(C)CC(NC(=O)C(Cc1ccccc1)NC(=O)c1cnccn1)B(O)O` (stereo not given) + NC1CC1c1ccc(-c2cccc(O)c2)cc1 yielded an IC50 (second compound 0.1 µM) of 0.538 nM, an IC50 (second compound 0.316 µM) of 0.504 nM and an IC50 (second compound 1 µM) of 0.515 nM. For the same molecule, the IC50 (second compound 3.16 µM) was 0.462 nM, the IC50 (second compound 10 µM) was 0.336 nM and the viability, T/C [1] was 92.2%. The viability, T/C [2] was 0.66%, the viability, T/C [3] was 0.11% and the viability, T/C [4] was 0.08%. For the same molecule, the viability, T/C [5] was 0.09%, the viability, T/C [6] was 0.26% and the viability, T/C [7] was 83.8%. The viability, T/C [8] was 0.44%, the viability, T/C [9] was 0.17% and the viability, T/C [10] was 0.18%. The viability, T/C [11] was 0.1%, the viability, T/C [12] was 0.3% and the viability, T/C [13] was 86.6%. The viability, T/C [14] was 0.35%, the viability, T/C [15] was 0.24% and the viability, T/C [16] was 0.04%. The viability, T/C [17] was 0.06%, the viability, T/C [18] was 0.28% and the viability, T/C [19] was 74.4%. For the same molecule, the viability, T/C [20] was 0.52%, the viability, T/C [21] was 0.15% and the viability, T/C [22] was 0.08%. The viability, T/C [23] was 0.07%, the viability, T/C [24] was 0.2% and the viability, T/C [25] was 52.8%. It also gave a viability, T/C [26] of 0.4%, a viability, T/C [27] of 0.22% and a viability, T/C [28] of 2.1%. It also gave a viability, T/C [29] of 0.17% and a viability, T/C [30] of 1.31%.

`Nc1ncn(C2CC(O)C(CO)O2)c(=O)n1` (stereo not given) + NC1CC1c1ccc(-c2cccc(O)c2)cc1 gave an IC50 (second compound 0.1 µM) greater than 1000 nM, an IC50 (second compound 0.316 µM) greater than 1000 nM and an IC50 (second compound 1 µM) greater than 1000 nM. The IC50 (second compound 3.16 µM) was greater than 1000 nM, the IC50 (second compound 10 µM) was greater than 1000 nM and the viability, T/C [3] was 89.9%. For the same molecule, the viability, T/C [4] was 81.6%, the viability, T/C [5] was 83.7% and the viability, T/C [6] was 76.3%. The viability, T/C (second compound 0.1 µM, first compound 0.316 µM) was 58.7%, the viability, T/C (second compound 0.1 µM, first compound 1 µM) was 52.4% and the viability, T/C [9] was 78.3%. For the same molecule, the viability, T/C [10] was 89.6%, the viability, T/C [11] was 101% and the viability, T/C [12] was 73.4%. For the same molecule, the viability, T/C (second compound 0.316 µM, first compound 0.316 µM) was 65.5%, the viability, T/C (second compound 0.316 µM, first compound 1 µM) was 53.1% and the viability, T/C [15] was 84.1%. The viability, T/C [16] was 91.2%, the viability, T/C [17] was 86.6% and the viability, T/C [18] was 76.9%. The viability, T/C (second compound 1 µM, first compound 0.316 µM) was 68.8%, the viability, T/C (second compound 1 µM, first compound 1 µM) was 59.8% and the viability, T/C [21] was 80.9%. It also gave a viability, T/C [22] of 83.9%, a viability, T/C [23] of 82.2% and a viability, T/C [24] of 79%. The viability, T/C (second compound 3.16 µM, first compound 0.316 µM) was 76%, the viability, T/C (second compound 3.16 µM, first compound 1 µM) was 65.1% and the viability, T/C [27] was 87.7%. For the same molecule, the viability, T/C [28] was 94%, the viability, T/C [29] was 95.9% and the viability, T/C [30] was 80.7%. For the same molecule, the viability, T/C (second compound 10 µM, first compound 0.316 µM) was 75.5% and the viability, T/C (second compound 10 µM, first compound 1 µM) was 67.4%.

Molecule `NS(=O)(=O)OCC1CC(n2ccc3c(NC4CCc5ccccc54)ncnc32)CC1O` (stereo not given) + NC1CCC(NC2CC2c2ccccc2)CC1 has an IC50 (second compound 0.1 µM) of 28.1 nM, an IC50 (second compound 0.316 µM) of 31.8 nM and an IC50 (second compound 1 µM) of 26.3 nM. For the same molecule, the IC50 (second compound 3.16 µM) was 25.8 nM, the IC50 (second compound 10 µM) was 25.4 nM and the viability, T/C (second compound 0.1 µM, first compound 0.00949 µM) was 77.7%. The viability, T/C (second compound 0.1 µM, first compound 0.03 µM) was 49%, the viability, T/C (second compound 0.1 µM, first compound 0.0949 µM) was 26.5% and the viability, T/C (second compound 0.1 µM, first compound 0.3 µM) was 16.8%. For the same molecule, the viability, T/C (second compound 0.1 µM, first compound 0.949 µM) was 13.8%, the viability, T/C (second compound 0.1 µM, first compound 3 µM) was 7.17% and the viability, T/C (second compound 0.316 µM, first compound 0.00949 µM) was 69.6%. The viability, T/C (second compound 0.316 µM, first compound 0.03 µM) was 51.4%, the viability, T/C (second compound 0.316 µM, first compound 0.0949 µM) was 28.9% and the viability, T/C (second compound 0.316 µM, first compound 0.3 µM) was 15.1%. It also gave a viability, T/C (second compound 0.316 µM, first compound 0.949 µM) of 10.3%, a viability, T/C (second compound 0.316 µM, first compound 3 µM) of 6.4% and a viability, T/C (second compound 1 µM, first compound 0.00949 µM) of 71.8%. The viability, T/C (second compound 1 µM, first compound 0.03 µM) was 47.3%, the viability, T/C (second compound 1 µM, first compound 0.0949 µM) was 25.5% and the viability, T/C (second compound 1 µM, first compound 0.3 µM) was 13.7%. For the same molecule, the viability, T/C (second compound 1 µM, first compound 0.949 µM) was 11.1%, the viability, T/C (second compound 1 µM, first compound 3 µM) was 7.37% and the viability, T/C (second compound 3.16 µM, first compound 0.00949 µM) was 70.7%. It also gave a viability, T/C (second compound 3.16 µM, first compound 0.03 µM) of 47.5%, a viability, T/C (second compound 3.16 µM, first compound 0.0949 µM) of 24.4% and a viability, T/C (second compound 3.16 µM, first compound 0.3 µM) of 15.6%. For the same molecule, the viability, T/C (second compound 3.16 µM, first compound 0.949 µM) was 12.2%, the viability, T/C (second compound 3.16 µM, first compound 3 µM) was 7.55% and the viability, T/C (second compound 10 µM, first compound 0.00949 µM) was 74.9%. The viability, T/C (second compound 10 µM, first compound 0.03 µM) was 46.5%, the viability, T/C (second compound 10 µM, first compound 0.0949 µM) was 23.6% and the viability, T/C (second compound 10 µM, first compound 0.3 µM) was 15.3%. For the same molecule, the viability, T/C (second compound 10 µM, first compound 0.949 µM) was 9.78% and the viability, T/C (second compound 10 µM, first compound 3 µM) was 5.36%.

Molecule `CC(C)CC(NC(=O)CNC(=O)c1cc(Cl)ccc1Cl)B1OC(=O)CC(CC(=O)O)(C(=O)O)O1` (stereo not given) + NC1CCC(NC2CC2c2ccccc2)CC1 has an IC50 (second compound 0.1 µM) of 5.31 nM, an IC50 (second compound 0.316 µM) of 5.02 nM and an IC50 (second compound 1 µM) of 4.9 nM. The IC50 (second compound 3.16 µM) was 5.38 nM, the IC50 (second compound 10 µM) was 4.85 nM and the viability, T/C [1] was 105%. The viability, T/C [2] was 111%, the viability, T/C [3] was 85.9% and the viability, T/C [4] was 6.15%. The viability, T/C [5] was 0.37%, the viability, T/C [6] was 0.25% and the viability, T/C [7] was 99.8%. For the same molecule, the viability, T/C [8] was 106%, the viability, T/C [9] was 80.4% and the viability, T/C [10] was 4.86%. The viability, T/C [11] was 0.4%, the viability, T/C [12] was 0.15% and the viability, T/C [13] was 104%. The viability, T/C [14] was 99.4%, the viability, T/C [15] was 78.2% and the viability, T/C [16] was 4.23%. For the same molecule, the viability, T/C [17] was 0.34%, the viability, T/C [18] was 0.23% and the viability, T/C [19] was 108%. For the same molecule, the viability, T/C [20] was 111%, the viability, T/C [21] was 88% and the viability, T/C [22] was 5.7%. For the same molecule, the viability, T/C [23] was 0.29%, the viability, T/C [24] was 0.28% and the viability, T/C [25] was 103%. It also gave a viability, T/C [26] of 96.4%, a viability, T/C [27] of 74.5% and a viability, T/C [28] of 8.66%. It also gave a viability, T/C [29] of 0.32% and a viability, T/C [30] of 0.38%.
